The values below come from patent US4774248A, “Methods of treating depression and depressive states using 5-phenyl-1,4,5,6-tetrahydropyrimidine derivatives” (priority 1985, dated 1988).

Entries after “also recorded” stand apart in the source; their conditions may differ.

A short description of one series: pH of aqueous solution. In kind it is physicochemical. On the procedure:
The tests were carried out in solution in water at pH 4.0-5.5. The pH of the aqueous solution of CRL 41 378 varies according to the concentration: it is 4.0 at a concentration of 50 g/l, 4.5 at 12.5 g/l, 5.0 at 0.8 g/l and 5.5 at CRL 41 378 concentrations less than or equal to 0.2 g/l.

Series [1] deals with depressions and depressive states. The series is described as follows: Clinical trials in depression and depressive states. The class given is in vivo, human. Particulars: daily oral administration to adults. On the procedure:
The clinical trials which have been undertaken have made it possible to determine that the daily dose to be administered orally to adults, in the treatment of depressions and depressive states, is generally between 3 and 120 mg for the products of the formulae Ia and Ib according to the invention.

The test system of series [2] is hypothermia, righting behavior and stereotypies induced by apomorphine. Briefly: Interaction with apomorphine in mice. In kind it is in vivo. Particulars: for minimal effective dose: Mus musculus, ip, read-out: dose as from which the hypothermia induced by apomorphine is antagonized; for action on righting behavior and stereotypies due to apomorphine / action on hypothermia induced by apomorphine: i.p.; for action on hypothermia induced by apomorphine: hydrochloride. The procedure, abridged:
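Male mice, groups of 6, given test compound intraperitoneally in distilled water (20 ml/kg) 30 min before subcutaneous apomorphine at 1 or 16 mg/kg. Hypothermia, righting behaviour and stereotypies scored.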

Series [3] deals with stereotypies induced by amphetamine. Briefly: Interaction with amphetamine (rats). In kind it is in vivo. Particulars: i.p.; amphetamine 2 mg/kg. On the procedure: (§1) The results of toxicological and neuropsychopharmacological tests which were carried out with the products according to the invention have been summarized below. In these tests, solutions of the said products in distilled water were administered intraperitoneally in a volume of 20 ml/kg to male mice and in a volume of 5 ml/kg to male rats.
(§2) Amphetamine (2 mg/kg) is injected intraperitoneally into groups of 6 rats 30 minutes after the administration of CRL 41 378.

Series [4] relates to hypothermia induced by apomorphine. Briefly: Interaction with apomorphine by gastric administration. The class given is in vivo. Particulars: Mus musculus, male mice, apomorphine 16 mg/kg s.c., read-out: dose as from which the hypothermia induced by apomorphine is opposed. On the procedure:
Each test product is administered gastrically to male mice, in a volume of 20 ml/kg, 0.50 h before the subcutaneous injection of 16 mg/kg of apomorphine.

For series [5], the system named is mice. Briefly: Four plate test. In kind it is in vivo. Particulars: i.p. On the procedure: as §1
The test is performed on groups of 10 mice 30 minutes after the administration of CRL 41 378.

The test system of series [6] is central nervous system (CNS). Briefly: Neuropsychopharmacological profile (conclusions of the tests). The class given is in vivo, mice and rats. On the procedure: as §1
Series [7] concerns stereotypies induced by amphetamine. Briefly: Interaction with amphetamine (mice as printed). The class given is in vivo. Particulars: in mice (so in the source), i.p. On the procedure: as §2
Using the procedures given above, the following results were obtained with a solution of CRL 41 382 in water at pH 6.

Series [8] has as its system mice. Briefly: Behavioral despair (forced immersion). The class given is in vivo. Particulars: mice which have been forcibly immersed, i.p.; hydrochloride.

As to `CC(=O)N1C=NCC(c2ccccc2)C1.Cl` (stereo not drawn) [CRL 41 378, 1-acetyl-5-phenyl-1,4,5,6-tetrahydropyrimidine hydrochloride], the “pH of the aqueous solution” value in “pH of aqueous solution” (0.8 g/l) was 5.0. The “pH of the aqueous solution” value in the series “pH of aqueous solution” (12.5 g/l) came to 4.5. In addition, the “pH of the aqueous solution” value in “pH of aqueous solution” (50 g/l) was 4.0. Besides, the “pH of the aqueous solution” value in the series “pH of aqueous solution” (less than or equal to 0.2 g/l) stood at 5.5. Moreover, the “results in human therapy (depression)” value in [1] is reported as “excellent results”. For the same compound, in series [2], the minimal effective dose was at least 0.5 mg/kg; the “action on righting behavior and stereotypies due to apomorphine” value was “practically no modification of the righting behavior and stereotypies due to apomorphine”; the “action on hypothermia induced by apomorphine” value was “antagonizes the hypothermia induced by apomorphine; also recorded: antagonism of the hypothermia induced by apomorphine, reserpine and oxotremorine in mice”. Further, in series [3], the “action on stereotypies induced by amphetamine” value was “at the highest dose used (32 mg/kg), CRL 41 378 potentiates the stereotypies induced by amphetamine”. Moreover, in [4], the minimal effective dose is at least 0.5 mg/kg. Moreover, the “number of punished passes” value in the series with mice [5] is given as “does not modify the number of punished passes”. Further, the “lethal effects of the various convulsants studied” value in [6] (electric shock, hypobaric hypoxia, asphyxiant anoxia) is “aggravates the lethal effects of the various convulsants studied (electric shock, hypobaric hypoxia, asphyxiant anoxia)”. In addition, in series [6] (i.p.), the antidepressant effects entry was “antidepressant effects appearing as from the lowest doses”, the peripheral anticholinergic activity result is recorded as “absence of peripheral anticholinergic activity” and the stimulant effects result is given as “absence of stimulant effects on the CNS”. In [6] (i.p., hydrochloride), the “peripheral α-adrenergic stimulant effects” value was “peripheral α-adrenergic stimulant effects appearing at high doses; also recorded: an α1 stimulation component represented by salivation and mydriasis (in mice and rats) and piloerection (in rats); also recorded: moderate hyperthermia in mice; also recorded: peripheral vasodilation (tail, paws and snout) in mice and rats”; the sedative effects entry is on record as “sedative effects appearing at high doses; also recorded: sedation in mice”. Also, the overall neuropsychopharmacological profile result in [6] (summary, hydrochloride) is on record as “an antidepressant exhibiting sedative effects at high doses; also recorded: resembles β-adrenergic stimulants”.
On to `Cl.OC1(c2ccccc2)CN=CNC1` (stereo not drawn) [CRL 41 382, 5-hydroxy-5-phenyl-1,4,5,6-tetrahydropyrimidine hydrochloride], for which the “results in human therapy (depression)” value in series [1] is reported as “excellent results”. The “action on stereotypies induced by amphetamine” value in series [7] is “practically no modification of the stereotypies induced by amphetamine”. Besides, in [2], the minimal effective dose was at least 1 mg/kg; the “action on righting behavior and stereotypies due to apomorphine” value is “practically no modification of the righting behavior and stereotypies”; the “action on hypothermia induced by apomorphine” value was “as from a dose of 1 mg/kg and especially at doses of 16 to 64 mg/kg, CRL 41 382 opposes the hypothermia induced by apomorphine; also recorded: antagonism of the hypothermia induced by apomorphine, oxotremorine and reserpine in mice”. Besides, the minimal effective dose in [4] is at least 2 mg/kg. Further, the “number of punished passes” value in the series on mice [5] is given as “practically no modification of the number of punished passes”. In addition, the period of immobility entry with mice [8] is “does not modify the period of immobility; also recorded: absence of antagonism of the immobility due to "despair"”. Besides, in series [6] (i.p.), the antidepressant effects entry is given as “antidepressant effects appearing as from the lowest doses used”, the peripheral anticholinergic activity result is given as “absence of peripheral anticholinergic activity” and the sedative effects entry is “sedative effects appearing transiently at the highest doses used (with no detectable decrease in the motor activity)”. Moreover, the stimulant effects result in series [6] (i.p., hydrochloride) is on record as “absence of any motor stimulation; also recorded: absence of stimulant effects”.
